In patent US20040191297A1, “Carotenoid formulation” (priority 1997, published 2004):

Columns and labels:
[1] = Carotenoid content of Lycopene Suspension-supplemented diets after 7 months storage; format: physicochemical; conditions: for Carotenoid content of diet: stored at −20 °C for 7 months
Protocol: When the Lycopene Suspension (Henkel Corporation, La Grange, Ill.) was extracted by organic extraction methods, the major carotenoid was lycopene, but a number of other carotenoids were known to be present in tomatoes, α- and β-Carotene, phytofluene and phytoene were also present (FIGS. 6 & 7). The quantitative profile of carotenoids in the Lycopene Suspension was carried out using an HPLC system as described above, equipped with a photodiode array detector. The six major components can be seen in Table 7.
(Table 10). Note that all the major carotenoids plus the lycopene metabolite present in the Lycopene Suspension are present in the diets in the same relative proportions. However, the net loss of lycopene over 7 months was 66%, 38%, 40%, 44% and 60%, in treatment groups 1-5, respectively; in contrast, β-carotene concentrations declined by only 10% of original values over the same time period.

[2] = Carotenoid content of livers of rats fed supplemented diets
Protocol: Breast, liver and prostate tissue contain lipids which interfere with the assay. Consequently, a saponification step was required prior to organic extraction. Tissue was homogenized in 20 ml methanol to which echinenone was added as internal standard. For breast tissue, which comprise of 85% adipocytes, 8.0 ml 50% NaOH and 4.0 ml 25% sodium ascorbate was added and the mixture was homogenized. For prostate and liver tissue, which contain less lipid, 4.0 ml and 50% NaOH. and 2.0 ml sodium ascorbate were added and the mixture was
homogenized. Saponification was carried out in 50 ml tubes saturated with N2 gas overnight in a temperature controlled shaker bath at 30° C. Following saponification, 10 ml hexane was add d to each tube and vortexed for 1 minute. The mixture was then centrifuged at 2000 rpm for 10 min at 4° C. and the hexane layer was decanted and saved. This hexane extraction procedure was repeated 5-7 times. The pooled hexane extract was then dried under N2 gas at 60° C., dissolved in injection solvent and analyzed by HPLC. Lung and colon tissue were processed in an identical manner with the exception that the saponification step was omitted.

[3] = female rats, Diet 1, 2.5 mM/kg diet
[4] = female rats, Diet 2, 1.0 mM/kg diet
[5] = female rats, Diet 3, 0.5 mM/kg diet
[6] = female rats, Diet 4, 0.25 mM/kg diet
[7] = female rats, Diet 5, 0.10 mM/kg diet
[8] = male rats, Diet 1, 2.5 mM/kg diet
[9] = male rats, Diet 2, 1.0 mM/kg diet
[10] = male rats, Diet 3, 0.5 mM/kg diet
[11] = male rats, Diet 5, 0.10 mM/kg diet

SMILES	Carotenoid content of diet ([1]; Diet 1, 2.5 mM/kg diet)	Carotenoid content of diet ([1]; Diet 2, 1.0 mM/kg diet)	Carotenoid content of diet ([1]; Diet 3, 0.5 mM/kg diet)	Carotenoid content of diet ([1]; Diet 4, 0.25 mM/kg diet)	Carotenoid content of diet ([1]; Diet 5, 0.10 mM/kg diet)	Carotenoid content of liver [2, 3]	Carotenoid content of liver [2, 4]	Carotenoid content of liver [2, 5]	Carotenoid content of liver [2, 6]	Carotenoid content of liver [2, 7]	Carotenoid content of liver [2, 8]	Carotenoid content of liver [2, 9]	Carotenoid content of liver [2, 10]	Carotenoid content of liver ([2]; male rats, Diet 4, 0.25 mM/kg diet)	Carotenoid content of liver [2, 11]	decline of concentration from original values ([1]; diets, 7 months storage) [%]
CC(C)=CCC/C(C)=C/CC/C(C)=C/C=C/C(C)=C/C=C/C=C(C)/C=C/C=C(\C)CC/C=C(\C)CCC=C(C)C [zeta-carotene]	1 μg/gm (ppm)	9 μg/gm (ppm)	4 μg/gm (ppm)	2 μg/gm (ppm)	0 μg/gm (ppm)											
CC(C)=CCC/C(C)=C/C=C/C(C)=C/C=C/C(C)=C/C=C/C=C(C)/C=C/C=C(C)/C=C/C1C(C(C)(C)O)CCC1(C)O (stereo not drawn) [2,6 cyclolycopene-1,5-diol]	2 μg/gm (ppm)	1.4 μg/gm (ppm)	0.76 μg/gm (ppm)	0.46 μg/gm (ppm)	0.14 μg/gm (ppm)	9 μg/gm (ppm)	5 μg/gm (ppm)	7 μg/gm (ppm)	4 μg/gm (ppm)	6 μg/gm (ppm)	4 μg/gm (ppm)	.39 μg/gm (ppm)	4 μg/gm (ppm)	.28 μg/gm (ppm)	.34 μg/gm (ppm)	
CC1=C(/C=C/C(C)=C/C=C/C(C)=C/C=C/C=C(C)/C=C/C=C(C)/C=C/C2=C(C)CCCC2(C)C)C(C)(C)CCC1 [β-carotene]	284 μg/gm (ppm)	138 μg/gm (ppm)	69 μg/gm (ppm)	37 μg/gm (ppm)	8 μg/gm (ppm)											10

The remaining lines, values ahead:

Carotenoid content of diet ([1]; Diet 1, 2.5 mM/kg diet)	Carotenoid content of diet ([1]; Diet 2, 1.0 mM/kg diet)	Carotenoid content of diet ([1]; Diet 3, 0.5 mM/kg diet)	Carotenoid content of diet ([1]; Diet 4, 0.25 mM/kg diet)	Carotenoid content of diet ([1]; Diet 5, 0.10 mM/kg diet)	Carotenoid content of liver [2, 3]	Carotenoid content of liver [2, 4]	Carotenoid content of liver [2, 5]	Carotenoid content of liver [2, 6]	Carotenoid content of liver [2, 7]	Carotenoid content of liver [2, 8]	Carotenoid content of liver [2, 9]	Carotenoid content of liver [2, 10]	Carotenoid content of liver ([2]; male rats, Diet 4, 0.25 mM/kg diet)	Carotenoid content of liver [2, 11]	decline of concentration from original values ([1]; diets, 7 months storage) [%]	SMILES
58 μg/gm (ppm)	28 μg/gm (ppm)	14 μg/gm (ppm)	8 μg/gm (ppm)	2 μg/gm (ppm)	106 μg/gm (ppm)	48 μg/gm (ppm)	50 μg/gm (ppm)	46 μg/gm (ppm)	33 μg/gm (ppm)	30 μg/gm (ppm)	5 μg/gm (ppm)	34 μg/gm (ppm)		10 μg/gm (ppm)		CC(C)=CCC/C(C)=C/CC/C(C)=C/C=C/C(C)=C/C=C/C=C(\C)CC/C=C(\C)CC/C=C(\C)CCC=C(C)C [Phytofluene]
70 μg/gm (ppm)	23 μg/gm (ppm)	0.32 μg/gm (ppm)	5 μg/gm (ppm)	1 μg/gm (ppm)	66 μg/gm (ppm)	35 μg/gm (ppm)	40 μg/gm (ppm)	46 μg/gm (ppm)	38 μg/gm (ppm)	23 μg/gm (ppm)	4 μg/gm (ppm)	21 μg/gm (ppm)		10 μg/gm (ppm)		CC(C)=CCC/C(C)=C/CC/C(C)=C/CC/C(C)=C/C=C/C=C(\C)CC/C=C(\C)CC/C=C(\C)CCC=C(C)C [Phytoene]
